Results: patent US20220243210A1, “ANGIOTENSIN II TYPE 1 RECEPTOR TARGETED OLIGONUCLEOTIDES AND USES THEREOF” (Ionis Pharmaceuticals, Inc., priority 2019, published 2022)
Oligonucleotides are written 5' to 3', each unit as a sugar letter and its base; * is a phosphorothioate linkage, no mark a phosphodiester; rarer units and linkages stand in square brackets, end groups in braces. Plain capitals give the bases only. {Cy3} = Cy3 fluorescent dye label; k = constrained ethyl (cEt); [5mC] = 5-methylcytosine; d = 2'-deoxy (DNA)

Test system: mouse MALAT RNA
Assay: MALAT RNA reduction in vivo, C57BL6/J mice, with or without Losartan pretreatment
Conditions: no Losartan, sacrifice 4 days after dose
Experimental: Compound Nos. 1213287 and 1295887 are described in Table 1 above. Compound Nos. 1213287 and 1295887 were tested in C57BL6/J mice with or without pretreatment with the AGTR1 antagonist, Losartan. The mice were divided into groups of 3 mice each. Mice receiving Losartan were treated with 150 mg/L in the drinking water for 10 days. Each mouse received a single IV dose on day 10 of either Compound No. 1213287 or 1295887 of either 1.2 or 3.6 μmol/kg. The mice were then sacrificed on day 14. Heart, adipose, adrenal, kidney, and liver tissue was then collected and homogenized and RNA analysis was performed. A group of 4 mice received PBS as a negative control.
RNA was extracted from heart, adipose, adrenal, kidney, and liver tissue for real-time PCR analysis of measurement of RNA expression of MALAT using primer probe set mMALAT1 #2 (forward sequence […] (SEQ ID NO: 5); reverse sequence […] (SEQ ID NO: 6); probe sequence […] (SEQ ID NO: 7)). Results are presented as percent change of RNA, relative to PBS control, normalized to mouse GAPDH.

Question: What does the source list for “Compound No. 1213287: Control unconjugated 19-nucleotide modified oligonucleotide TCAGCATTCTAATAGCAGC with a 3′ Cy3 label (antisense dTd[5mC]dAkG*k[5mC]*kA*dT*dT*d[5mC]*dT*dA*dA*dT*dA*dG*d[5mC]*kA*kG*k[5mC]-{Cy3}) [reference compound]”?
Answer: MALAT RNA (% control) (Adipose, single IV 1.2 μmol/kg): 78.0 % control; MALAT RNA (% control) (Adipose, single IV 3.6 μmol/kg): 53.0 % control; MALAT RNA (% control) (Adrenal, single IV 1.2 μmol/kg): 78.7 % control; MALAT RNA (% control) (Adrenal, single IV 3.6 μmol/kg): 50.0 % control; MALAT RNA (% control) (Heart, single IV 1.2 μmol/kg): 77.0 % control; MALAT RNA (% control) (Heart, single IV 3.6 μmol/kg): 57.3 % control; MALAT RNA (% control) (Kidney, single IV 1.2 μmol/kg): 58.3 % control; MALAT RNA (% control) (Kidney, single IV 3.6 μmol/kg): 42.3 % control; MALAT RNA (% control) (Liver, single IV 1.2 μmol/kg): 53.7 % control; MALAT RNA (% control) (Liver, single IV 3.6 μmol/kg): 35.0 % control
